Source: patent US5043332A, “Novel 11β-substituted -19-nor-steriods” (priority 1981, dated 1991)

Legend:
[1] = biological target: T1, Gluocorticoid receptor of thymus of rats (Rattus norvegicus, UniProt P06536); assay: Glucocorticoid receptor binding (displacement of tritiated dexamethasone); conditions: for affinity for glucocorticoid receptors (in words): conclusion; for relative affinity of tieing (ARL), Glucocorticoid: second table
T1 construct: The thymus were removed and homogenized at 0° C; from tissue; host or cells: rat thymus, 105,000 g supernatant (adrenalectomized male Sprague-Dawley rats)
T1 sequence (P06536 1-795): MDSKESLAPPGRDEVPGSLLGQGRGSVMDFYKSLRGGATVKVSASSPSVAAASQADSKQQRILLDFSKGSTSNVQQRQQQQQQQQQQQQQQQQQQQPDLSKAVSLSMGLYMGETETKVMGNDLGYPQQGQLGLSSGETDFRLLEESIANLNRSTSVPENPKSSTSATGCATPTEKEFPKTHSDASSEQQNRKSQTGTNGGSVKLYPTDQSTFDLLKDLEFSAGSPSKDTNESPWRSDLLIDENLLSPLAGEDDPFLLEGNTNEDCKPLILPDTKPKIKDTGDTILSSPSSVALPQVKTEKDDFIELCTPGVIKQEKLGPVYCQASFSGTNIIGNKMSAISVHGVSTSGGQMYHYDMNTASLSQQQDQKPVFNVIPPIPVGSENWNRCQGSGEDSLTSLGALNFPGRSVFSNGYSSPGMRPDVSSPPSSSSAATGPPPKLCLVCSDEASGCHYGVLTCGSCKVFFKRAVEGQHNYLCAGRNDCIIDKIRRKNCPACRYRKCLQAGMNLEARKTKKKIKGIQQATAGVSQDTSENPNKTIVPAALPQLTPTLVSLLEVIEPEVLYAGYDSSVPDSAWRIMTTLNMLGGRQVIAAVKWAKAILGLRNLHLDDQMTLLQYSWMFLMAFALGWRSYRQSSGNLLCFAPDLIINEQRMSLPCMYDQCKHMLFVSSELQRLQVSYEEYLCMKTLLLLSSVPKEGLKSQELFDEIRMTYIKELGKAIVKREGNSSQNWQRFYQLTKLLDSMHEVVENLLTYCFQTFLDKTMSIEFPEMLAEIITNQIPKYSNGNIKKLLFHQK
Protocol: D. Gluocorticoid receptor of thymus of rats
Male Sprague-Dawley EPOS rats weighing 160 to 200 g were surrenalectomized and the animals were killed 4 to 8 days later. The thymus were removed and homogenized at 0° C. in a buffered TS solution of 10 mM, Tris, 0.25M of Saccharose, 2 mM of dithiothreitol HCl for a pH of 7.4 using a polytetrafluoroethylene-glass Potter at a rate of 1 g of tissue per 10 ml of TS. […] The concentration of tied tritiated dexamethasone (B) was measured for each incubate by the adsorption on carbon-dextran technique.
The calculation of the relative affinity of […] (ARL) was identical for all of the above receptor tests. One traced the following two curves: the percentage of tied tritiated hormone B/T as a function of the logarithm of the cold hormone concentration and B/T as a function of the logarithm of the concentration of the cold test product. One determined the line of the equation. [formula]
The intersection of the I50 line and the curves permits one to determine the concentrations of the cold hormone of the reference (CH) and the cold test compound (CX) which inhibit by 50% the tieing of tritiated hormone with the receptor. The relative affinity of tieing (ARL) of the test product was determined by the equation: [formula]

[2] = biological target: T2, Androgen receptor of prostate of rats (Rattus norvegicus, UniProt P15207); assay: Androgen receptor binding (displacement of tritiated product P); conditions: for affinity for androgen receptors (in words): conclusion; for relative affinity of tieing (ARL), Androgen: second table, incubation 24 H at 0° C.
T2 construct: The prostates were removed, weighed and homogenized at 0° C; from tissue; host or cells: rat prostate, 105,000 g supernatant (castrated male Sprague-Dawley rats)
T2 sequence (P15207 1-902): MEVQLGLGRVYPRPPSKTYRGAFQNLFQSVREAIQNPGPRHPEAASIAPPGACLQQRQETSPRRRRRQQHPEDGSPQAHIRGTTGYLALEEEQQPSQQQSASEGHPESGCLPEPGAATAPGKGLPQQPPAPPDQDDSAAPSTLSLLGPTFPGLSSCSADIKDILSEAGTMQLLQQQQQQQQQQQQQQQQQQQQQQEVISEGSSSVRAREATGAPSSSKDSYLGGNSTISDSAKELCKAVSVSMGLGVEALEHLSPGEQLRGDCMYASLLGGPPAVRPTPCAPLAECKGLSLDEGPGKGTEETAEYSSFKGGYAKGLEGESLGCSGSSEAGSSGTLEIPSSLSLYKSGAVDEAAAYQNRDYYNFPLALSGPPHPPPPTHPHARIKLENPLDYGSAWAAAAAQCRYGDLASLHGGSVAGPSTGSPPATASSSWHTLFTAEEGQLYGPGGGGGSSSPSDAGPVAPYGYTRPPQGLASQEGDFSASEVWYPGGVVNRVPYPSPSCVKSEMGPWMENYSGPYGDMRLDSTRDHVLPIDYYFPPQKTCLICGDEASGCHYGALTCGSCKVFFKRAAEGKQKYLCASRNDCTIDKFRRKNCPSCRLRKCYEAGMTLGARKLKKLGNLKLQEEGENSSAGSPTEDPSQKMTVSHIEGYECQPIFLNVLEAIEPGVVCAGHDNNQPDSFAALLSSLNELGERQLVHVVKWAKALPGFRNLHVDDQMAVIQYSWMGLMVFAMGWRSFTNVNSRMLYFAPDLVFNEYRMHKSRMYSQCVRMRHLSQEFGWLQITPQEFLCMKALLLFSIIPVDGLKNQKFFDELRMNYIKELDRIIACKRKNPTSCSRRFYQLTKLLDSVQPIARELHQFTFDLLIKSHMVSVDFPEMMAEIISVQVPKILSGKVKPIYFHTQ
Method in brief: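 Male Sprague-Dawley EPOS rats of 160 to 200 g were castrated and killed 24 hours later. Prostates were homogenized at 0° C. in Tris 10 mM, 0.25M saccharose, HCl buffer at pH 7.4 (1 g tissue per 5 ml) and ultracentrifuged at 105,000 g. Cytosol was incubated with tritiated product P plus increasing cold competitor (0-1,000×10^-9 M). Bound tritium was measured by carbon-dextran adsorption. ARL was derived from the 50% inhibitory concentrations of reference and test compound.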

| SMILES | affinity for glucocorticoid receptors (in words) [1] | relative affinity of tieing (ARL), Glucocorticoid ([1]; incubation 4 H at 0° C.) | relative affinity of tieing (ARL), Glucocorticoid ([1]; incubation 24 H at 0° C.) | affinity for androgen receptors (in words) [2] | relative affinity of tieing (ARL), Androgen [2] |
| --- | --- | --- | --- | --- | --- |
| C#C[C@]1(O)CC[C@H]2[C@@H]3CCC4=CC(=O)CCC4=C3[C@@H](c3ccc(N(C)C)cc3)C[C@@]21C [Example 32, 11β-[4-(N,N-dimethylamino)-phenyl]-17α-ethynyl-Δ^4,9-estradiene-17β-ol-3-one] | very remarkable affinity | 279 | 235 | slightly moderate affinity | 68 |
| CC#C[C@]1(O)CC[C@H]2[C@@H]3CCC4=CC(=O)CCC4=C3[C@@H](c3ccc([N+](C)(C)[O-])cc3)C[C@@]21C [Example 35, N-oxide of 11β-[4-(N,N-dimethylamino)-phenyl]-17α-(prop-1-ynyl)-Δ^4,9-estradiene-17β-ol-3-one] | – | 7,8 | 5 | – | 2,2 |
| C=CC[C@]1(O)CC[C@H]2[C@@H]3CCC4=CC(=O)CCC4=C3[C@@H](c3ccc(N(C)C)cc3)C[C@@]21C [Example 37, 11β-[4-(N,N-dimethylamino)-phenyl]-17α-(prop-2-enyl)-Δ^4,9-estradien-17β-ol-3-one] | very remarkable affinity | 178 | 221 | slightly moderate affinity | 8 |
| CN(C)c1ccc([C@H]2C[C@@]3(C)[C@@H](CC[C@@]3(O)C#C[Si](C)(C)C)[C@@H]3CCC4=CC(=O)CCC4=C32)cc1 [Example 44, 11β-[4-(N,N-dimethylamino)-phenyl]-21-trimethylsilyl-19-nor-17α-Δ^4,9-pregnadiene-20-yne-17β-ol-3-one] | – | 79 | 104 | – | 4,6 |
